Experimental data as given in patent US8835632B2, “Methods to increase the photostability of dyes” (The University of North Carolina at Chapel Hill, priority 2007, dated 2014).

Columns and labels:
[1] = Absorption and fluorescence spectra, extinction coefficient, fluorescence quantum yield; type: physicochemical; conditions: for Suppression of extinction coefficient by introduction of the cyano-group: in methanol
[2] = from C6H6 to MeOH; cited from earlier work
[3] = Relative rate of reaction with chemically generated singlet oxygen in DMSO; type: physicochemical; conditions: 2.5 mM, 1O2 from 1,4-dimethylnaphtalene-1,4-endoperoxide
Procedure: The bleaching rates for the dyes differed by two orders of magnitude. The relative rate constants kr (rel) for product formation during reaction with singlet oxygen were measured by comparing the percent conversions for dyes dissolved in DMSO containing a fixed amount of ^1O2 (2.5 mM solutions; ^1O2 generated by decomposition of 1,4-dimethylnaphtalene-1,4-endoperoxide). The rates were generally higher for dyes with a polar ground state (1a, 2a, 2b, 2d) than for the dyes with their ground state at the “cyanine limit” (3, 4). […] Olefins without allylic hydrogens react with singlet oxygen to form dioxetanes. Dioxetanes are unstable and decompose, to form two carbonyl compounds.

[4] = Photobleaching under constant illumination from a halogen tungsten lamp filtered through glass; type: physicochemical
Text: The photostability of dyes can be important for applications in living cells. The mechanism of photobleaching for merocyanines of varying structure has been examined See Toutchkine et al., J. Am. Chem. Soc. 125:4132-4145 (2003). The photostability of the presently disclosed dyes was characterized by exposing them to constant illumination from a halogen tungsten lamp filtered through glass. This broad spectrum light source provided essentially equal intensity throughout the spectral range where the dyes absorb and where they would be irradiated in vivo (about 600 nm to about 650 nm).

[5] = Methylene Blue-sensitized photobleaching (reactivity of the dyes with singlet oxygen); type: physicochemical; conditions: methanol, [dye]=[Methylene Blue]=3.33 μM, filtered light λ>630 nm, 40 min
Procedure: The reactivity of the dyes with singlet oxygen also was examined to confirm that the cyano substituent group affected photobleaching mediated by singlet oxygen. Singlet oxygen was generated using the photosensitizer Methylene Blue (MB), which has a high quantum yield for singlet oxygen production and allows singlet oxygen to be introduced into the system without excitation of the merocyanine dye. See Murov and Carmichael, Handbook of Photochemistry, 2nd ed.; Dekker: New York (1993).
15 mL of a methanol solution containing dye (3.33 μM) and Methylene Blue (3.33 μM) were placed in a 20-mL Borosilicate Glass Scintillation Vial (Fisher Scientific). The vial was illuminated with the light of a 90 W halogen reflector lamp (120 V, 1280 Lumens, 12 Degree Beam Spread). […] The length of the filtering solution was 1.0 cm. The distance between the vial and the lamp was 11.0 cm. A fan (120 V, 150 mm)) was used to cool the vial. At selected time intervals a sample was removed and the sample absorbance spectrum was obtained on a Hewlett-Packard 8453 diode array spectrophotometer (Agilent, Technologies, Inc.). Rate constants of dye photobleaching were obtained from a plot of ln(A) vs. time (see Table 5).
Again, without wishing to be bound to any one particular theory, the greater reactivity of S-SO vs. I-SO toward singlet oxygen can be attributed to the greater electron donating capacity of the benzothiazole moiety relative to the indolenine ring system.

Q: Which “Absorbance λmax” value ([1]; Butanol (BuOH)) does the source give for CN1/C(=C/C=C/C=C2/C(=O)c3ccccc3S2(=O)=O)C(C)(C)c2ccccc21 [I-SO, (2Z)-2-[(2E,4E)-4-(1,3,3-trimethyl-1,3-dihydro-2H-indol-2-ylidene)but-2-en-1-ylidene]-1-benzothiophen-3(2H)-one 1,1-dioxide, reference compound] here?
A: The value was 587 nm.

Q: And the “Emission λmax” value ([1]; Butanol (BuOH))?
A: Its value is 618 nm.

Q: And the “Extinction coefficient ε” value ([1]; Butanol (BuOH))?
A: The value was 134000.

Q: And the “Fluorescence quantum yield Φ” value ([1]; Butanol (BuOH))?
A: Its value is 0.2.

Q: And the “Absorption energy Eabs Exp” value ([1]; C6H6)?
A: The value was 2.172 eV.

Q: And the “Emission energy Eem Exp” value ([1]; C6H6)?
A: Its value is 2.056 eV.

Q: What about the “Absorption energy Eabs Exp” value ([1]; MeOH) of the same molecule?
A: Its value is 2.116 eV.

Q: And the “Emission energy Eem Exp” value ([1]; MeOH)?
A: Its value is 2.016 eV.

Q: What about the “Absorbance λmax” value ([1]; Methanol (MeOH)) of the same molecule?
A: Its value is 586 nm.

Q: And the “Emission λmax” value ([1]; Methanol (MeOH))?
A: Its value is 615 nm.

Q: And the “Extinction coefficient ε” value ([1]; Methanol (MeOH))?
A: Its value is 143000.

Q: What about the “Fluorescence quantum yield Φ” value ([1]; Methanol (MeOH)) of the same molecule?
A: The value was 0.03.

Q: And the “Observed absorption (ε)” value ([1]; Table 10, BuOH)?
A: Its value is “(134000)”.

Q: And the “Observed absorption λmax” value ([1]; Table 10, BuOH)?
A: The value was 587 nm.

Q: And the “Observed absorption (ε)” value ([1]; Table 10, C6H6)?
A: Its value is “(109000)”.

Q: And the “Observed absorption λmax” value ([1]; Table 10, C6H6)?
A: The value was 571 nm.

Q: What about the “Observed absorption (ε)” value ([1]; Table 10, DMF) of the same molecule?
A: Its value is “(143000)”.

Q: What about the “Observed absorption λmax” value ([1]; Table 10, DMF) of the same molecule?
A: Its value is 586 nm.

Q: What about the “Observed absorption (ε)” value ([1]; Table 10, MeOH) of the same molecule?
A: Its value is “(143000)”.

Q: What about the “Observed absorption λmax” value ([1]; Table 10, MeOH) of the same molecule?
A: Its value is 586 nm.

Q: What about the “Observed absorption (ε)” value ([1]; Table 10, OcOH) of the same molecule?
A: The value was “(125000)”.

Q: What about the “Observed absorption λmax” value ([1]; Table 10, OcOH) of the same molecule?
A: Its value is 587 nm.

Q: What about the “Absorption Exp wavelength” value ([1]; Table 12, C6H6) of the same molecule?
A: Its value is 571 nm.

Q: What about the “Absorption Exp wavelength” value ([1]; Table 12, MeOH) of the same molecule?
A: Its value is 586 nm.

Q: What about the “Observed emission (Φ)” value ([1]; Table 15, BuOH) of the same molecule?
A: The value was 0.54.

Q: What about the “Observed emission λmax” value ([1]; Table 15, BuOH) of the same molecule?
A: Its value is 618 nm.

Q: What about the “Observed emission (Φ)” value ([1]; Table 15, C6H6) of the same molecule?
A: The value was 0.42.

Q: What about the “Observed emission λmax” value ([1]; Table 15, C6H6) of the same molecule?
A: Its value is 603 nm.

Q: What about the “Observed emission (Φ)” value ([1]; Table 15, DMF) of the same molecule?
A: Its value is 0.97.

Q: What about the “Observed emission λmax” value ([1]; Table 15, DMF) of the same molecule?
A: The value was 615 nm.

Q: What about the “Observed emission (Φ)” value ([1]; Table 15, MeOH) of the same molecule?
A: The value was 0.08.

Q: What about the “Observed emission λmax” value ([1]; Table 15, MeOH) of the same molecule?
A: The value was 615 nm.

Q: What about the “Observed emission (Φ)” value ([1]; Table 15, OcOH) of the same molecule?
A: The value was 0.98.

Q: And the “Observed emission λmax” value ([1]; Table 15, OcOH)?
A: Its value is 617 nm.

Q: What about the “Suppression of extinction coefficient by introduction of the cyano-group” value [1] of the same molecule?
A: Its value is 62%.

Q: What about the Absorption wavelength shift [2] of the same molecule?
A: The Absorption wavelength shift was 15 nm.

Q: And the Emission wavelength shift [2]?
A: The Emission wavelength shift was 12 nm.

Q: And the “kr(rel) (relative rate constants for product formation during reaction with singlet oxygen produced chemically)” value [3]?
A: The value was 5.24.

Q: And the “kph * 10^6 (absolute rate of photobleaching)” value ([4]; C6H6)?
A: Its value is 1.11 s^−1.

Q: What about the “kph(rel) (relative rate of photobleaching)” value ([4]; C6H6, with respect to standard I-SO in C6H6) of the same molecule?
A: Its value is 1.00.

Q: What about the “kph * 10^6 (absolute rate of photobleaching)” value ([4]; MeOH) of the same molecule?
A: Its value is 0.53 s^−1.

Q: What about the “kph(rel) (relative rate of photobleaching)” value ([4]; MeOH, with respect to standard I-TBA in MeOH) of the same molecule?
A: Its value is 1.56.

Q: And the “Bleaching on irradiation of Methylene Blue” value (shortened to “Bleaching on irradiation”) [5]?
A: The value was 27%.

Q: Which “Absorbance λmax” value ([1]; Butanol (BuOH)) does the source give for CN1/C(=C(C#N)/C=C/C=C2/C(=O)c3ccccc3S2(=O)=O)C(C)(C)c2ccccc21 [I-SO-CN, (2Z,3E,5Z)-5-(1,1-dioxido-3-oxo-1-benzothiophen-2(3H)-ylidene)-2-(1,3,3-trimethyl-1,3-dihydro-2H-indol-2-ylidene)pent-3-enenitrile] here?
A: The value was 527 nm.

Q: And the “Emission λmax” value ([1]; Butanol (BuOH))?
A: The value was 594 nm.

Q: And the “Extinction coefficient ε” value ([1]; Butanol (BuOH))?
A: Its value is 56000.

Q: What about the “Fluorescence quantum yield Φ” value ([1]; Butanol (BuOH)) of the same molecule?
A: Its value is 0.04.

Q: What about the “Absorbance λmax” value ([1]; Methanol (MeOH)) of the same molecule?
A: The value was 528 nm.

Q: What about the “Emission λmax” value ([1]; Methanol (MeOH)) of the same molecule?
A: The value was 595 nm.

Q: And the “Extinction coefficient ε” value ([1]; Methanol (MeOH))?
A: Its value is 55000.

Q: And the “Fluorescence quantum yield Φ” value ([1]; Methanol (MeOH))?
A: Its value is 0.03.

Q: And the “Bleaching on irradiation” value [5]?
A: Its value is 0%.

Q: Which “Absorbance λmax” value ([1]; Butanol (BuOH)) does the source give for CCN1/C(=C/C=C/C=C2/C(=O)c3ccccc3S2(=O)=O)Sc2ccccc21 [S-SO, (2Z)-2-[(2E,4Z)-4-(3-ethyl-1,3-benzothiazol-2(3H)-ylidene)but-2-en-1-ylidene]-1-benzothiophen-3(2H)-one 1,1-dioxide, reference compound] here?
A: Its value is 604 nm.

Q: What about the “Emission λmax” value ([1]; Butanol (BuOH)) of the same molecule?
A: The value was 622 nm.

Q: And the “Extinction coefficient ε” value ([1]; Butanol (BuOH))?
A: Its value is 163000.

Q: And the “Fluorescence quantum yield Φ” value ([1]; Butanol (BuOH))?
A: The value was 0.12.

Q: And the “Absorbance λmax” value ([1]; Methanol (MeOH))?
A: Its value is 598 nm.

Q: And the “Emission λmax” value ([1]; Methanol (MeOH))?
A: Its value is 617 nm.

Q: What about the “Extinction coefficient ε” value ([1]; Methanol (MeOH)) of the same molecule?
A: The value was 143000.

Q: What about the “Fluorescence quantum yield Φ” value ([1]; Methanol (MeOH)) of the same molecule?
A: The value was 0.05.

Q: What about the “Suppression of extinction coefficient by introduction of the cyano-group” value [1] of the same molecule?
A: Its value is 34%.

Q: What about the “Bleaching on irradiation” value [5] of the same molecule?
A: Its value is 43%.

Q: Which results are given for CCN1/C(=C(C#N)/C=C/C=C2/C(=O)c3ccccc3S2(=O)=O)Sc2ccccc21 [S-SO-CN, (2E,3E,5Z)-5-(1,1-dioxido-3-oxo-1-benzothien-2(3H)-ylidene)-2-(3-ethyl-1,3-benzothiazol-2(3H)-ylidene)pent-3-enenitrile]?
A: Absorbance λmax ([1]; Butanol (BuOH)): 550 nm; Emission λmax ([1]; Butanol (BuOH)): 599 nm; Extinction coefficient ε ([1]; Butanol (BuOH)): 91000; Fluorescence quantum yield Φ ([1]; Butanol (BuOH)): 0.16; Absorbance λmax ([1]; Methanol (MeOH)): 547 nm; Emission λmax ([1]; Methanol (MeOH)): 597 nm; Extinction coefficient ε ([1]; Methanol (MeOH)): 95000; Fluorescence quantum yield Φ ([1]; Methanol (MeOH)): 0.05; Bleaching on irradiation of Methylene Blue [5]: no bleaching

Q: Which Absorption wavelength shift [2] does the source give for CCN1C(=O)\C(=C/C=C/C=C2\Sc3ccccc3N2CC)C(O)N(CC)C1=S (stereo not shown) [S-TBA] here?
A: Its Absorption wavelength shift is 17 nm.

Q: What about the Emission wavelength shift [2] of the same molecule?
A: The Emission wavelength shift was 11 nm.
